Legend:
PARP1 in 231-NQ+ cells = assay: PAR formation (PARP1 hyperactivation), Western blot; format: cell-based, human; conditions: after 2 μM β-lap
[1] = β-Lap pharmacokinetic (PK) analyses; format: in vivo; conditions: athymic nude mice, plasma ng/mL, organs ng/g
Description: FIG. 27 depicts correlative studies of NQO1 expression and β-lap, a bioactivatable drug. (a) NQO1 activity assay (reported as nMoles cyt-c/min/μg protein) in paired tumor (T) and associated normal tissue (N) from human NSCLC patient samples. NQO1 activity was not detectable in normal lung tissue. (b) β-Lap pharmacokinetic (PK) analyses in athymic nude mice. Black circles denote plasma concentrations (ng/mL); other colors denote various organ/tumor concentrations (ng/g). […] (c) NQO1 expression by immunohistochemistry (IHC). Arrowhead denotes NQO1+ prostate cancer cells. Arrow denotes normal prostate gland tissue that have low, or no, detectable NQO1 protein levels.

NQO1 = NQO1 (Homo sapiens, UniProt P15559); assay: NADH recycling assay (NQO1 futile cycling); format: biochemical; set-up: S9 Supernatants were prepared from cells in mid-log to late log phase growth; endogenous in cells; host or cells: cancer cell lines, mostly from a non-small cell lung cancer panel (e.g. Calu-3); S9 supernatants; conditions: in 5 min, NQO1 futile cycle
Procedure: Assays were performed with either purified NQO1 or S9 extracts from MCF-7:WS8, or other cancer or normal cells. For the assay using purified NQO1, […] of recombinant human NQO1 was mixed with 200-500 μM NADH in 50 mM potassium phosphate buffer, pH 7.0.

[2] = system: Human (shown) or mouse rbs; assay: Hemolysis of red blood cells; format: cell-based; conditions: rbs incubated with HPβCD alone, HPβCD-β-lap, or β-lap alone in DMSO
Procedure: Human (shown) or mouse rbs were incubated with HPβCD alone or HPβCD-β-lap, or β-lap alone in DMSO.

ZR751 = system: ZR751; set-up: LD50 β-Lap + CAT: unit not given beside the values
Procedure: (§1) Cells were cultured and treated as described above. […] Experiments were repeated at least three times, and data expressed as relative survival (treated/control×100%) means±SEM. […] The multi-target model was used to describe the shape of relative survival curves. In this model, a final slope (D0) resulting from multiple-event killing and quasithreshold (Dq) doses were used to represent the size or width of the shoulder of the curve. The extrapolation number (n) is also a measure of the width of the shoulder. The three parameters, n, Do, and Dq were related by the expression: loge n=Dq/Do.
(§2) Cells were treated with β-lap with or without dicoumarol for 2 h. […] Data were expressed as relative survival (treated/control×100%). Experiments were repeated at least three times, and data expressed as relative survival means±SEM. […] Human mammary epithelial cells were plated in 48 well dishes in growth media containing a 50:50 mixture of MGEM/DME:F12 medium supplemented with insulin, human epidermal growth factor and hydrocortisone.

H2185 = system: H2185; set-up: LD50 β-Lap + CAT: unit not given beside the values
Procedure: as §1, §2

MCF-7 = system: MCF-7; set-up: LD50 β-Lap + CAT: unit not given beside the values
Procedure: as §1, §2

HTB24 = system: HTB24; set-up: LD50 β-Lap + CAT: unit not given beside the values
Procedure: as §1, §2

HCC1937 = system: HCC1937; set-up: LD50 β-Lap + CAT: unit not given beside the values
Procedure: as §1, §2

HTB122 = system: HTB122; set-up: LD50 β-Lap + CAT: unit not given beside the values
Procedure: as §1, §2

PC-3 cells = assay: Relative DNA cell survival assay, β-lap with or without IR; format: cell-based, human; conditions: for Equivalent dose of IR / Equivalent dose of β-Lap: Machado's model
Procedure: Relative DNA cell survival assays were assessed after various treatments. Briefly, cells were seeded at 5×10^3 per well in 48-well plates and allowed to attach overnight. […] DNA content was then determined by Hoeschst 33258 dye staining and fluorescence detection using a plate reader (Perkin-Elmer, Boston, Mass.) as described. Relative survival assays after combined treatment were confirmed by colony-forming ability assays as described. Results were reported as means±SE from at least three independent experiments. For relative survival data, different combinations of IR+β-lap exposures were fit with simple multi-target models in SigmaPlot for Windows Version 11.0. For synergy, a statistical definition of synergy (48) was used and calculations were performed by fitting experimental data with the Machado and Robinson model using the R code (47). The equitoxic doses listed in Table 1 were calculated by the parameters of the model of Machado and Robinson obtained in fitting.

Chain of NQO1 (P15559 whole entry): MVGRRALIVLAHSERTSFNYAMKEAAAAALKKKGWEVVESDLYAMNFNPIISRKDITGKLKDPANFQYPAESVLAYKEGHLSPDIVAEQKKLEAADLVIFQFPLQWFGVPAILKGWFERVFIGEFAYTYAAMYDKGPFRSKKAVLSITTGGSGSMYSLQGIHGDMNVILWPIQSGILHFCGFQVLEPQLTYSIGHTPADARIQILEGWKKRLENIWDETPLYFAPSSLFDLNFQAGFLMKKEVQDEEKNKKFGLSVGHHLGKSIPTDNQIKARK

CC1(C)CCC2=C(O1)c1ccccc1C(=O)C2=O [β-Lap, 3,4-dihydro-2,2-dimethyl-2H-naphtho[1,2-b]pyran-5,6-dione]
Time of peak PAR formation (PARP1 in 231-NQ+ cells): 30 min
Organ/tumor concentrations [1]: elevated levels of the drug in lung
NAD(P)H used per mole of β-lap (NQO1): > 60 mol
Hemolysis [2]: hemolysis by HPβCD and not β-lapachone
LD50 β-Lap + CAT (ZR751): 3.2
LD50 p-Lap + DIC (ZR751; human): 6.8
LD50 β-Lap (ZR751; human): 1.4
LD50 β-Lap + CAT (H2185): 2.6
LD50 p-Lap + DIC (H2185; human): 6.4
LD50 β-Lap (H2185; human): 1.3
LD50 β-Lap + CAT (MCF-7): 4.8
LD50 p-Lap + DIC (MCF-7; human): 9.0
LD50 β-Lap (MCF-7; human): 1.7
LD50 β-Lap + CAT (HTB24): 3.5
LD50 p-Lap + DIC (HTB24; human): 6.2
LD50 β-Lap (HTB24; human): 1.5
LD50 β-Lap + CAT (HCC1937): 3.4
LD50 p-Lap + DIC (HCC1937; human): 5.0
LD50 β-Lap (HCC1937; human): 2.2
LD50 β-Lap + CAT (HTB122): 2.8
LD50 p-Lap + DIC (HTB122; human): 5.5
LD50 β-Lap (HTB122; human): 1.5
Exposure time sufficient to achieve maximal cytotoxicity (PC-3 cells; 4 μM β-lap): ~120 min
β-lap dose with the same effect as the combination (PC-3 cells; 1 Gy+1 μM β-lap): 4 µM
Equivalent dose of IR (PC-3 cells; IR 0 Gy + β-Lap 1 μM): 0.6 Gy
Equivalent dose of β-Lap (PC-3 cells; IR 0 Gy + β-Lap 1 μM): 1 µM
Equivalent dose of IR (PC-3 cells; IR 0 Gy + β-Lap 2 μM): 1.2 Gy
Equivalent dose of β-Lap (PC-3 cells; IR 0 Gy + β-Lap 2 μM): 2 µM
Equivalent dose of IR (PC-3 cells; IR 0 Gy + β-Lap 3 μM): 1.7 Gy
Equivalent dose of β-Lap (PC-3 cells; IR 0 Gy + β-Lap 3 μM): 3 µM
Equivalent dose of IR (PC-3 cells; IR 1 Gy + β-Lap 1 μM): 1.7 Gy
Equivalent dose of β-Lap (PC-3 cells; IR 1 Gy + β-Lap 1 μM): 4.1 µM
Equivalent dose of IR (PC-3 cells; IR 1 Gy + β-Lap 2 μM): 2.1 Gy
Equivalent dose of β-Lap (PC-3 cells; IR 1 Gy + β-Lap 2 μM): 5.6 µM
Equivalent dose of IR (PC-3 cells; IR 1 Gy + β-Lap 3 μM): 2.7 Gy
Equivalent dose of β-Lap (PC-3 cells; IR 1 Gy + β-Lap 3 μM): 6.8 µM
Equivalent dose of IR (PC-3 cells; IR 2 Gy + β-Lap 1 μM): 2.6 Gy
Equivalent dose of β-Lap (PC-3 cells; IR 2 Gy + β-Lap 1 μM): 7.9 µM
Equivalent dose of IR (PC-3 cells; IR 2 Gy + β-Lap 2 μM): 3.1 Gy
Equivalent dose of β-Lap (PC-3 cells; IR 2 Gy + β-Lap 2 μM): 9.6 µM
Equivalent dose of IR (PC-3 cells; IR 2 Gy + β-Lap 3 μM): 3.6 Gy
Equivalent dose of β-Lap (PC-3 cells; IR 2 Gy + β-Lap 3 μM): 11.5 µM
Equivalent dose of IR (PC-3 cells; IR 3 Gy + β-Lap 1 μM): 3.7 Gy
Equivalent dose of β-Lap (PC-3 cells; IR 3 Gy + β-Lap 1 μM): 12.5 µM
Equivalent dose of IR (PC-3 cells; IR 3 Gy + β-Lap 2 μM): 4.1 Gy
Equivalent dose of β-Lap (PC-3 cells; IR 3 Gy + β-Lap 2 μM): 14.5 µM
Equivalent dose of IR (PC-3 cells; IR 3 Gy + β-Lap 3 μM): 4.6 Gy
Equivalent dose of β-Lap (PC-3 cells; IR 3 Gy + β-Lap 3 μM): 16 µM

— patent US9469878B2, “Methods of treating cancer comprising targeting NQO1” (The Board of Regents of the University of Texas System, priority 2010, dated 2016)
